# Reference: patent US11976083B2, “Inhibitors of peptidylarginine deiminases” (Gilead Sciences, Inc., priority 2020, dated 2024)
# Target: T1, human PAD4 (Homo sapiens, UniProt Q9UM07)
# T1 construct: human PAD4 (NM_012387), A2-P663, was PCR amplified; His-SUMO (N, cleaved yes); made in house; host or cells: E. coli BL21(DE3)
# Assay: In vitro PAD4 BAEE biochemical assay
# Details: BAEE substrate 3 mM, 5 nM PAD4, 2 mM calcium chloride; geometric mean of multiple experiments
# Method in brief: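 Recombinant human PAD4 (5 nM final) with 2 mM CaCl2 was preincubated with compound 30 min at 25 °C in MOPS buffer pH 7.6, then reacted with 3 mM BAEE for 2 h at 25 °C. After EDTA stop, released ammonia was detected by o-phthalaldehyde/DTT fluorescence (ex 405/em 535 nm); IC50 from four-parameter fit, geometric mean.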
# T1 sequence (Q9UM07 2-663): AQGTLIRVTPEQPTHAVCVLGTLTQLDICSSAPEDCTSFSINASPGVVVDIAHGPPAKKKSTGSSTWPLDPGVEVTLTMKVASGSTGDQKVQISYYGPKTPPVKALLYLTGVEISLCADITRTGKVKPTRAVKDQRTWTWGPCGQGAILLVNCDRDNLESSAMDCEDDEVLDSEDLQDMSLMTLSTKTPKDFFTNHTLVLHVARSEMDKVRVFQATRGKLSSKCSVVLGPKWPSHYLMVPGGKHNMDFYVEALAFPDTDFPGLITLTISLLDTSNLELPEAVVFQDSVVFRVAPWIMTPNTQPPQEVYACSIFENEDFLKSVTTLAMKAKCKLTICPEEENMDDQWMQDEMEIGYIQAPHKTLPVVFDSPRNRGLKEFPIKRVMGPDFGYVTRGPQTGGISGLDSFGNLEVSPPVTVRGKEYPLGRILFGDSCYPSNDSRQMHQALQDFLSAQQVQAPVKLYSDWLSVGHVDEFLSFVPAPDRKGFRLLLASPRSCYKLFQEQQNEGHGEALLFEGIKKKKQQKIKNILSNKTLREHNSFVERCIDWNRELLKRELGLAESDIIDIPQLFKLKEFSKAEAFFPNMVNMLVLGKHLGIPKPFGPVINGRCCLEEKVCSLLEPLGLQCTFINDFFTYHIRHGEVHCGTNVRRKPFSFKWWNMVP
row,SMILES,IC50 [µM]
1,"COc1cc(C(=O)N2CCC[C@@H](N)C2)cc2nc(-c3cc4ccc5cc4n3CCCCCCNC(=O)c3ccccc3-5)n(C)c12 [Example 51, 17-[5-[(3~{R})-3-aminopiperidine-1-carbonyl]-7-methoxy-1-methyl-benzimidazol-2-yl]-9,16-diazatetracyclo[14.5.2.0^{2,7}.0^{19,23}] tricosa-1(22),2,4,6,17,19(23),20-heptaen-8-one]",0.215
2,"COc1cc(C(=O)N2CCC[C@@H](N)C2)cc2nc(-c3cc4ccc5cc4n3CCCCCCNC(=O)c3ncccc3-5)n(C)c12 [Example 52, 17-[5-[(3~{R})-3-aminopiperidine-1-carbonyl]-7-methoxy-1-methyl-benzimidazol-2-yl]-6,9,16-triazatetracyclo[14.5.2.0^{2,7}.0^{19,23}] tricosa-1(22),2,4,6,17,19(23),20-heptaen-8-one]",0.424
3,"COc1cc(C(=O)N2CCC[C@@H](N)C2)cc2nc(-c3cc4ccc5cc4n3CCCCCCC(C)(C)C(=O)Nc3ncccc3-5)n(C)c12 [Example 53, 18-[5-[(3~{R})-3-aminopiperidine-1-carbonyl]-7-methoxy-1-methyl-benzimidazol-2-yl]-10,10-dimethyl-6,8,17-triazatetracyclo[15.5.2.0^{2,7}.0^{20,24}] tetracosa-1(23),2,4,6,18,20(24),21-heptaen-9-one]",0.283
4,"COc1cc(C(=O)N2CCC[C@@H](N)C2)cc2nc(-c3cc4ccc5cc4n3CCCCCCC(C)(C)C(=O)Nc3ccccc3-5)n(C)c12 [Example 54, 18-[5-[(3~{R})-3-aminopiperidine-1-carbonyl]-7-methoxy-1-methyl-benzimidazol-2-yl]-10,10-dimethyl-8,17-diazatetracyclo[15.5.2.0^{2,7).0^{20,24}] tetracosa-1(23),2,4,6,18,20(24),21-heptaen-9-one]",1.38
5,"COc1cc(C(=O)N2CCC[C@@H](N)C2)cc2nc(-c3cc4ccc5cc4n3CCCC3CCN(CC3)C(=O)c3ccccc3-5)n(C)c12 [Example 55, 17-[5-[(3~{R})-3-aminopiperidine-1-carbonyl]-7-methoxy-1-methyl-benzimidazol-2-yl]-9,16-diazapentacyclo[14.5.2.2^{9,12).0^{2,7}.0^ {19,23}]pentacosa-1(22),2,4,6,17,19(23),20-heptaen-8-one]",4.68
6,"COc1cc(C(=O)N2CCC[C@@H](N)C2)cc2nc(-c3cc4ccc5nc4n3CCCCCCNC(=O)c3c-5ccnc3F)n(C)c12 [Example 56, 17-[5-[(3~{R})-3-aminopiperidine-1-carbonyl]-7-methoxy-1-methyl-benzimidazol-2-yl]-6-fluoro-5,9,16,22-tetrazatetracyclo[14.5.2.0^{2,7}.0^{19,23}] tricosa-1(22),2,4,6,17,19(23),20-heptaen-8-one]",0.193
7,"COc1cc(C(=O)N2CCC[C@@H](N)C2)cc2nc(-c3cc4ccc5nc4n3CCCCCCNC(=O)c3cccc(C)c3-5)n(C)c12 [Example 57, 17-[5-[(3~{R})-3-aminopiperidine-1-carbonyl]-7-methoxy-1-methyl-benzimidazol-2-yl]-3-methyl-9,16,22-triazatetracyclo[14.5.2.0^{2,7}.0^{19,23}] tricosa-1(22),2,4,6,17,19(23),20-heptaen-8-one]",0.213
8,"COc1cc(C(=O)N2CCC[C@@H](N)C2)cc2nc(-c3cc4ccc5nc4n3CCCCCC(C)(C)C(=O)N[C@@H]5C)n(C)c12 [Example 58, (10~{R})-16-[5-[(3~{R})-3-aminopiperidine-1-carbonyl]-7-methoxy-1-methyl-benzimidazol-2-yl]-7,7,10-trimethyl-1,9,18-triazatricyclo[9.5.2.0^{14,17}]octadeca-11(18),12,14(17),15-tetraen-8-one]",0.077
9,"COc1cc(C(=O)N[C@H]2CNC[C@@H](O)C2)cc2nc(-c3cc4ccc5nc4n3CCCCCCC(C)(C)C(=O)N[C@@H]5C)n(C)c12 [Example 59, ~{N}-[(3~{R},5~{S})-5-hydroxy-3-piperidyl]-7-methoxy-1-methyl-2-[(11~{R})-8,8,11-trimethyl-9-oxo-1,10,19-triazatricyclo[10.5.2.0^{15,18}]nonadeca-12(19),13,15(18),16-tetraen-17-yl]benzimidazole-5-carboxamide]",0.161
10,"COc1cc(C(=O)N2CC[C@@H](OC)[C@@H](N)C2)cc2nc(-c3cc4ccc5nc4n3CCCCCCC(C)(C)C(=O)N[C@@H]5C)n(C)c12 [Example 60, (11~{R})-17-[5-[(3~{S},4~{R})-3-amino-4-methoxy-piperidine-1-carbonyl]-7-methoxy-1-methyl-benzimidazol-2-yl]-8,8,11-trimethyl-1,10,19-triazatricyclo[10.5.2.0^{15,18}]nonadeca-12(19),13,15(18),16-tetraen-9-one]",0.118
11,"COc1cc(C(=O)N2CC[C@@H](OC)[C@@H](N)C2)cc2nc(-c3cc4ccc5nc4n3CCCCCC(C)(C)C(=O)N[C@@H]5C)n(C)c12 [Example 61, (10~{R})-16-[5-[(3~{S},4~{R})-3-amino-4-methoxy-piperidine-1-carbonyl]-7-methoxy-1-methyl-benzimidazol-2-yl]-7,7,10-trimethyl-1,9,18-triazatricyclo[9.5.2.0^{14,17}]octadeca-11(18),12,14(17),15-tetraen-8-one]",0.231
12,"COc1cc(C(=O)N2CC[C@@H](OC)[C@@H](N)C2)cc2nc(-c3cc4ccc5nc4n3CCCCCCC3(CC3)C(=O)N[C@@H]5C)n(C)c12 [Example 62, (11~{R})-17-[5-[(3~{S},4~{R})-3-amino-4-methoxy-piperidine-1-carbonyl]-7-methoxy-1-methyl-benzimidazol-2-yl]-11-methyl-spiro[1,10,19-triazatricyclo[10.5.2.0^{15,18}]nonadeca-12(19),13,15(18),16-tetraene-8,1′-cyclopropane]-9-one]",0.15
13,"COc1cc(C(=O)N[C@H]2CNCC(F)(F)C2)cc2nc(-c3cc4ccc5nc4n3CCCCCCC(C)(C)C(=O)N[C@@H]5C)n(C)c12 [Example 63, ~{N}-[(3~{R})-5,5-difluoro-3-piperidyl]-7-methoxy-1-methyl-2-[(11~{R})-8,8,11-trimethyl-9-oxo-1,10,19-triazatricyclo[10.5.2.0^{15,18}]nonadeca-12(19),13,15(18),16-tetraen-17-yl]benzimidazole-5-carboxamide]",25
14,"COc1cc(C(=O)N[C@H]2CNC[C@H](F)C2)cc2nc(-c3cc4ccc5nc4n3CCCCCCC(C)(C)C(=O)N[C@@H]5C)n(C)c12 [Example 64, ~{N}-[(3~{R},5~{R})-5-fluoro-3-piperidyl]-7-methoxy-1-methyl-2-[(11~{R})-8,8,11-trimethyl-9-oxo-1,10,19-triazatricyclo[10.5.2.0^{15,18}]nonadeca-12(19),13,15(18),16-tetraen-17-yl]benzimidazole-5-carboxamide]",0.315
15,"COc1cc(C(=O)N2CC[C@@H](CO)[C@H](N)C2)cc2nc(-c3cc4ccc5nc4n3CCCCCCC(C)(C)C(=O)N[C@@H]5C)n(C)c12 [Example 66, (11˜{R})-17-[5-[(3˜{S},4˜{R})-3-amino-4-(hydroxymethyl)piperidine-1-carbonyl]-7-methoxy-1-methyl-benzimidazol-2-yl]-8,8,11-trimethyl-1,10,19-triazatricyclo[10.5.2.0^{15,18}]nonadeca-12(19),13,15(18),16-tetraen-9-one]",1.16
16,"COc1cc(C(=O)N[C@H]2CNC[C@H](C)C2)cc2nc(-c3cc4ccc5nc4n3CCCCCCC(C)(C)C(=O)N[C@@H]5C)n(C)c12 [Example 67, 7-methoxy-1-methyl-~{N}-[(3~{R},5~{R})-5-methyl-3-piperidyl]-2-[(11~{R})-8,8,11-trimethyl-9-oxo-1,10,19-triazatricyclo[10.5.2.0^{15,18}]nonadeca-12(19),13,15(18),16-tetraen-17-yl]benzimidazole-5-carboxamide]",1.3
17,"COc1cc(C(=O)N[C@H]2CNC[C@@H](C)C2)cc2nc(-c3cc4ccc5nc4n3CCCCCCC(C)(C)C(=O)N[C@@H]5C)n(C)c12 [Example 68, 7-methoxy-1-methyl-~{N}-[(3~{R},5~{S})-5-methyl-3-piperidyl]-2-[(11~{R})-8,8,11-trimethyl-9-oxo-1,10,19-triazatricyclo[10.5.2.0^{15,18}]nonadeca-12(19),13,15(18),16-tetraen-17-yl]benzimidazole-5-carboxamide]",0.287
18,"COc1cc(C(=O)N[C@H]2CNCC[C@H]2F)cc2nc(-c3cc4ccc5nc4n3CCCCCCC(C)(C)C(=O)N[C@@H]5C)n(C)c12 [Example 69, ~{N}-[(3~{S},4~{R})-4-fluoro-3-piperidyl]-7-methoxy-1-methyl-2-[(11~{R})-8,8,11-trimethyl-9-oxo-1,10,19-triazatricyclo[10.5.2.0^{15,18}]nonadeca-12(19),13,15(18),16-tetraen-17-yl]benzimidazole-5-carboxamide]",0.201
19,"COc1cc(C(=O)N[C@@H]2CCCNC2)cc2nc(-c3cc4ccc5nc4n3CCCCCCC(C)(C)C(=O)N[C@@H]5C)n(C)c12 [Example 70, 7-methoxy-1-methyl-~{N}-[(3~{R})-3-piperidyl]-2-[(11~{R})-8,8,11-trimethyl-9-oxo-1,10,19-triazatricyclo[10.5.2.0^{15,18}]nonadeca-12(19),13,15(18),16-tetraen-17-yl]benzimidazole-5-carboxamide]",0.137
20,"COC(=O)[C@H]1CC[C@@H](NC(=O)c2cc(OC)c3c(c2)nc(-c2cc4ccc5nc4n2CCCCCCC(C)(C)C(=O)N[C@@H]5C)n3C)CN1 [Example 71, methyl (2~{R},5~{R})-5-[[7-methoxy-1-methyl-2-[(11~{R})-8,8,11-trimethyl-9-oxo-1,10,19-triazatricyclo[10.5.2.0^{15,18}]nonadeca-12(19),13,15(18),16-tetraen-17-yl]benzimidazole-5-carbonyl]amino]piperidine-2-carboxylate]",0.56
